The subject of the assay is ZRK. Briefly: NAD. The settings on record: 2000 uM NADPH/NADH; enzyme 1 ug/ml; optimal buffer. It is filed as biochemical, Zygosaccharomyces rouxii.

What is called Km is the concentration of substrate that gives half-maximal velocity. In the case of `CC(=O)c1cc(C(F)(F)F)cc(C(F)(F)F)c1` [Aprepitant K-INT, 1-(3,5-bis-trifluoromethyl-phenyl)-ethanone], the Km is 186 µM.

Consider `COC(=O)CC(=O)Cc1cc(F)c(F)cc1F` [Sitagliptin K-INT, 3-oxo-4-(2,4,5-trifluoro-phenyl)-butyric acid methyl ester], for which the Km amounted to 346 µM.

These data come from publication doi:10.1101/2021.07.05.449867v2 (biorxiv, 2021).
